Assay results reported in publication PMC8548585, “Triazolopyrimidine herbicides are potent inhibitors of Aspergillus fumigatus acetohydroxyacid synthase and potential antifungal drug leads” (Scientific Reports, 2021).

Experiments:
A. nidulans = assay: Antifungal susceptibility assay (broth microdilution MIC); type: cell-based; settings: Aspergillus nidulans, 35 °C, 48 h, no observable growth
A. niger = assay: as above; type: cell-based; settings: Aspergillus niger, 35 °C, 48 h, no observable growth
A. flavus = assay: as above; type: cell-based; settings: Aspergillus flavus, 35 °C, 48 h, no observable growth
A. fumigatus = assay: as above; type: cell-based; settings: Aspergillus fumigatus; A. fumigatus strain ATCC MYAA 3626, 35 °C, 48 h, no observable growth
[1] = target: CaAHAS (C. albicans AHAS); design: method as in earlier work; settings: shown for comparison; ref 13 (Garcia et al.); cited from earlier work

| MIC (A. nidulans) | MIC (A. niger) | MIC (A. flavus) | MIC (A. fumigatus) | SMILES | Ki [1] |
| --- | --- | --- | --- | --- | --- |
| > 100 µg/mL | > 100 µg/mL | > 100 µg/mL | > 100 µg/mL | COc1cc(OC)n2nc(NS(=O)(=O)c3c(C(F)(F)F)ccnc3OC)nc2n1 [PYS] | 212 ± 18 nM |
| > 100 µg/mL | > 100 µg/mL | > 100 µg/mL | > 100 µg/mL | CCOc1nc(F)cc2nc(S(=O)(=O)Nc3c(Cl)cccc3C(=O)OC)nn12 [CSM] | 4.6 ± 1.2 nM |
| > 100 µg/mL | > 100 µg/mL | > 100 µg/mL | > 100 µg/mL | COC(=O)c1csc(C)c1S(=O)(=O)NC(=O)n1nc(OC)n(C)c1=O [TCM] | 28000 nM |
